In US11168073B2, “3,3-difluoroallylamines or salts thereof and pharmaceutical compositions comprising the same” (YUHAN CORPORATION, priority 2018, dated 2021) one finds IC50 data, which are given here for 11 compounds.

Holding throughout (format): biochemical
For one assay, the target named is T1, recombinant human VAP-1 (Homo sapiens, UniProt Q16853).
T1 construct: purchased R&D systems
T1 sequence (Q16853 1-763): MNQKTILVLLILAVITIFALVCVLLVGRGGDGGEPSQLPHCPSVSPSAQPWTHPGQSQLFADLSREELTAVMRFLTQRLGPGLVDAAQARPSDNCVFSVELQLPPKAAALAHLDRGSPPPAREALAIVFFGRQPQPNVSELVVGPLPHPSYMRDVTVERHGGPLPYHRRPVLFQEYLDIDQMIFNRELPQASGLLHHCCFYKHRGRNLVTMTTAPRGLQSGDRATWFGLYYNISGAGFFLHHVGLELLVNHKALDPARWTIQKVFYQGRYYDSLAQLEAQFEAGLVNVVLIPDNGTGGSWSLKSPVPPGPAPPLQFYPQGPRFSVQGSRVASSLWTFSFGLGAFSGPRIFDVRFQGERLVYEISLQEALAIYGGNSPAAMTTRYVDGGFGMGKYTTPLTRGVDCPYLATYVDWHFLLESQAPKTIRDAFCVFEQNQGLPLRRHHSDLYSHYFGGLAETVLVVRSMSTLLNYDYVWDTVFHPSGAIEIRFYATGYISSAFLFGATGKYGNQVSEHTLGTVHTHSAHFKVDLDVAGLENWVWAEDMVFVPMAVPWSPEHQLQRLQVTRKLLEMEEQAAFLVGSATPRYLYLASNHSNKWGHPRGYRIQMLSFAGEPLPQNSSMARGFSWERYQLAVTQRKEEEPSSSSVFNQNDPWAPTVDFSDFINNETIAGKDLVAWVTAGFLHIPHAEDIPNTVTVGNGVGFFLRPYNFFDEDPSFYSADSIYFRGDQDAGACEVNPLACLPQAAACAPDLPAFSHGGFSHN
Description: Activity evaluation on recombinant human VAP-1 (Amplex Red/HRP-coupled hydrogen peroxide assay, benzylamine substrate). The following applies: read-out: Inhibitory Activity (IC50, nM) human VAP-1. In a few lines: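 Recombinant human VAP-1 in 50 mM sodium phosphate pH 7.4 preincubated 30 min at 37 °C with compound (8-point 1:3 series, <1% DMSO), then 1 mM benzylamine, 200 uM Amplex Red, 1 U/mL HRP added. H2O2-derived resorufin fluorescence (ex 544/em 590) followed 1–2 h; IC50 from four-parameter fit of rate inhibition.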

The target of assay [1] is T2, recombinant human DAO (diamine oxidase) (Homo sapiens, UniProt P19801).
T2 construct: purchased R&D systems
T2 sequence (P19801 20-751): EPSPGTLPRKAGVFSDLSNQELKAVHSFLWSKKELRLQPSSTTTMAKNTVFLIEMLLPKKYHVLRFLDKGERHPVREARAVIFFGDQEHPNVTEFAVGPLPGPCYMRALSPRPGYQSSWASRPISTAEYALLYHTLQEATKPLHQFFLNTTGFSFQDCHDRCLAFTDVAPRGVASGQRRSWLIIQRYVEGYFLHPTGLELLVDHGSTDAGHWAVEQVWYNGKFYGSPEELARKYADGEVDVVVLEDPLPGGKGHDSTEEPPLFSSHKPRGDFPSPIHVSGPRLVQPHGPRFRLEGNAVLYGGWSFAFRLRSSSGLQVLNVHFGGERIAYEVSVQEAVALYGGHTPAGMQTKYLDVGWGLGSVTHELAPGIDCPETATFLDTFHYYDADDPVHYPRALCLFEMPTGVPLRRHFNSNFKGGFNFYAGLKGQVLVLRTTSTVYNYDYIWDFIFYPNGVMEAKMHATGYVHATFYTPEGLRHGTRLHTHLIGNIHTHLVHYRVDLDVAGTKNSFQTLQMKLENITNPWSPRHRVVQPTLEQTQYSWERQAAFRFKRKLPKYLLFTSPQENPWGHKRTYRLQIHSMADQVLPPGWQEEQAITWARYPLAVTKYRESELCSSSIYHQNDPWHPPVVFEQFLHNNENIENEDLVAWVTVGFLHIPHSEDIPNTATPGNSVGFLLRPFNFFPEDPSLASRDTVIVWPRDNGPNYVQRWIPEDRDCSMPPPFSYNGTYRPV
Description: Activity evaluation on recombinant human DAO (Amplex Red/HRP-coupled assay, 1 mM putrescine substrate). Particulars: read-out: Inhibitory Activity (IC50, nM) DAO. Summed up:
(§1)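 Compounds preincubated 30 min at 37 °C with enzyme in 50 mM sodium phosphate pH 7.4 (final DMSO <1%, 8-point 1:3 dilutions); reaction started with 200 uM Amplex Red, 1 U/mL HRP and substrate (MAO-A 0.5 mM tyramine, MAO-B 1 mM benzylamine, DAO 1 mM putrescine). Resorufin fluorescence (ex 544/em 590 nm) followed over 1-2 h; IC50 from four-parameter logistic fit.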

The target of assay [2] is T3, recombinant human MAO-B (monoamine oxidase-B) (Homo sapiens, UniProt P27338).
T3 construct: purchased Sigma-Aldrich
T3 sequence (P27338 1-520): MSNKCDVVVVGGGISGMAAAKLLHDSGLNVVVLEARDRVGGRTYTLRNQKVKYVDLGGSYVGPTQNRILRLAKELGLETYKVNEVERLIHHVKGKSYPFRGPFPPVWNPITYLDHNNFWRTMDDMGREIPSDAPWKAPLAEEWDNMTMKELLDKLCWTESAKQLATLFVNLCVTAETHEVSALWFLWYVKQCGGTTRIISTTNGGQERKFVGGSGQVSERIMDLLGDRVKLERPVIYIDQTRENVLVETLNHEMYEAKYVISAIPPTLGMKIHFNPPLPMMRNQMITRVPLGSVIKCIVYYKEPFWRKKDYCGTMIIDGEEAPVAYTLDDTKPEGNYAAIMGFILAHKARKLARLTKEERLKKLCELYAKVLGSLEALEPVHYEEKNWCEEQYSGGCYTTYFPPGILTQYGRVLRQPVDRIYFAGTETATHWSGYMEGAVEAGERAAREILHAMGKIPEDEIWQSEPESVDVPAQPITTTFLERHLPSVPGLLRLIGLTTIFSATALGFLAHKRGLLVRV
Description: Activity evaluation on recombinant human MAO-B (Amplex Red/HRP-coupled assay, 1 mM benzylamine substrate). The following applies: read-out: Inhibitory Activity (IC50, nM) MAO-B. In a few lines:
as §1

Assay [3] addresses T4, recombinant human MAO-A (monoamine oxidase-A) (Homo sapiens, UniProt P21397).
T4 construct: purchased Sigma-Aldrich
T4 sequence (P21397 1-527): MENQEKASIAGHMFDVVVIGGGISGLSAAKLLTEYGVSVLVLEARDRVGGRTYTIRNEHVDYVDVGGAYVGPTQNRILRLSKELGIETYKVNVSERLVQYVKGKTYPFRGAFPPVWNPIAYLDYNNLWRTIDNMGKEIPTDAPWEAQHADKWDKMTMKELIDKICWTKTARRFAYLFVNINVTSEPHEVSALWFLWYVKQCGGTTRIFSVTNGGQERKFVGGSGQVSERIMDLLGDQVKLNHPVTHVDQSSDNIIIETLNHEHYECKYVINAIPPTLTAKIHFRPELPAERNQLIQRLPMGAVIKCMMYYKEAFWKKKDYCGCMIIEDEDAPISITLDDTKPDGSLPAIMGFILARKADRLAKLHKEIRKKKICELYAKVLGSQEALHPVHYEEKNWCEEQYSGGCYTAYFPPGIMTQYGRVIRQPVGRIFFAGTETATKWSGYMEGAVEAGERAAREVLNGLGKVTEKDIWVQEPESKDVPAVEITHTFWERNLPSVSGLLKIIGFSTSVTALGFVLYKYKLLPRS
The assay is described as follows: Activity evaluation on recombinant human MAO-A (Amplex Red/HRP-coupled assay, 0.5 mM tyramine substrate). Particulars: read-out: Inhibitory Activity (IC50, nM) MAO-A. In a few lines: as §1

Setting [4] is: recombinant human VAP-1, 30 min preincubation at 37° C., 1 mM benzylamine.
The mark [5] stands for this setting: recombinant human VAP-1, benzylamine substrate.

Structures can show the parent of a compound that is named as a salt. Where two headings read alike, the source gives them in different places.

With `NCC(Cn1ncn(Cc2ccc(-c3ccn4ncnc4c3)s2)c1=O)=C(F)F` [Example 128, 2-[2-(aminomethyl)-3,3-difluoro-allyl]-4-[[5-([1,2,4]triazolo[1,5-a]pyridin-7-yl)-2-thienyl]methyl]-1,2,4-triazol-3-one Trifluoroacetate], the 50% inhibitory concentration (IC50) was 0.7 nM at recombinant human VAP-1 (setting [4]), 97000 nM in assay [1] (1 mM putrescine), over 100000 nM in assay [2] (1 mM benzylamine) and over 100000 nM in assay [3] (0.5 mM tyramine).

On to `Cc1c(-c2cccc(-c3nc[nH]n3)c2)cccc1-n1cnn(CC(CN)=C(F)F)c1=O` [Example 263, 2-[2-(aminomethyl)-3,3-difluoro-allyl]-4-[2-methyl-3-[3-(1H-1,2,4-triazol-3-yl)phenyl]phenyl]-1,2,4-triazol-3-one Trifluoroacetate], for which the half-maximal inhibitory concentration (IC50) on recombinant human VAP-1 (setting [5]) is 29 nM; in assay [1] (1 mM putrescine substrate) it was over 100000 nM; in assay [2] (1 mM benzylamine substrate), over 100000 nM; in assay [3] (0.5 mM tyramine substrate), over 100000 nM.

Take `Cc1cc(Br)cnc1-n1cnn(CC(CN)=C(F)F)c1=O` [Example 11, 2-[2-(aminomethyl)-3,3-difluoro-allyl]-4-(5-bromo-3-methyl-2-pyridyl)-1,2,4-triazol-3-one Trifluoroacetate]: the IC50 on recombinant human VAP-1 (setting [4]) is 1.1 nM; in assay [1] (1 mM putrescine), over 100000 nM; in assay [2] (1 mM benzylamine) it was 57000 nM; in assay [3] (0.5 mM tyramine), over 100000 nM.

As to `NCC(Cn1ncn(-c2cc(-c3ccc(N4CCNCC4)cc3)ccn2)c1=O)=C(F)F` [Example 55, 2-[2-(aminomethyl)-3,3-difluoro-allyl]-4-[4-(4-piperazin-1-ylphenyl)-2-pyridyl]-1,2,4-triazol-3-one Ditrifluoroacetate], the 50% inhibitory concentration (IC50) is 6.6 nM at recombinant human VAP-1 (setting [4]), 620 nM in assay [1] (1 mM putrescine), over 100000 nM in assay [2] (1 mM benzylamine) and over 100000 nM in assay [3] (0.5 mM tyramine).

`NCC(Cn1ncn(Cc2ccc(-c3ccc4c(c3)NC(=O)OC4)s2)c1=O)=C(F)F` [Example 142, 7-[5-[[1-[2-(aminomethyl)-3,3-difluoro-allyl]-5-oxo-1,2,4-triazol-4-yl]methyl]-2-thienyl]-1,4-dihydro-3,1-benzoxazin-2-one Trifluoroacetate]: the half-inhibitory concentration (IC50) on recombinant human VAP-1 (setting [4]) was 0.2 nM; in assay [1] (1 mM putrescine), 16000 nM; in assay [2] (1 mM benzylamine), 32000 nM; in assay [3] (0.5 mM tyramine), over 100000 nM.

For `Cc1cc(-c2ccc3c(c2)OCCN3C)cnc1-n1cnn(CC(CN)=C(F)F)c1=O` [Example 223, 2-[2-(aminomethyl)-3,3-difluoro-allyl]-4-[3-methyl-5-(4-methyl-2,3-dihydro-1,4-benzoxazin-7-yl)-2-pyridyl]-1,2,4-triazol-3-one Trifluoroacetate], the IC50 is 1.5 nM at recombinant human VAP-1 (setting [5]), 37000 nM in assay [1] (1 mM putrescine substrate), 38000 nM in assay [2] (1 mM benzylamine substrate) and over 10000 nM in assay [3] (0.5 mM tyramine substrate).

For the compound `CCn1cc(-c2cccc(-n3cnn(CC(CN)=C(F)F)c3=O)c2)cn1` [Example 23, 2-[2-(aminomethyl)-3,3-difluoro-allyl]-4-[3-(1-ethylpyrazol-4-yl)phenyl]-1,2,4-triazol-3-one Trifluoroacetate], the IC50 was 3.1 nM at recombinant human VAP-1 (setting [4]), 8400 nM in assay [1] (1 mM putrescine), over 100000 nM in assay [2] (1 mM benzylamine) and over 100000 nM in assay [3] (0.5 mM tyramine).

Take `Cn1cc(-c2ccc(Cn3cnn(CC(CN)=C(F)F)c3=O)s2)ccc1=O` [Example 121, 5-[5-[[1-[2-(aminomethyl)-3,3-difluoro-allyl]-5-oxo-1,2,4-triazol-4-yl]methyl]-2-thienyl]-1-methyl-pyridin-2-one Trifluoroacetate]: the IC50 at recombinant human VAP-1 (setting [4]) is 0.9 nM; in assay [1] (1 mM putrescine), over 10000 nM; in assay [2] (1 mM benzylamine), 40000 nM; in assay [3] (0.5 mM tyramine), over 100000 nM.

Consider `Cc1cc(-c2cccc(-n3cnn(CC(CN)=C(F)F)c3=O)c2)cc2c1NC(=O)CC2` [Example 22, 6-[3-[1-[2-(aminomethyl)-3,3-difluoro-allyl]-5-oxo-1,2,4-triazol-4-yl]phenyl]-8-methyl-3,4-dihydro-1H-quinolin-2-one Trifluoroacetate], for which the IC50 at recombinant human VAP-1 (setting [4]) is 0.8 nM; in assay [1] (1 mM putrescine), over 10000 nM; in assay [2] (1 mM benzylamine) it was over 100000 nM; in assay [3] (0.5 mM tyramine), over 100000 nM.

`Cn1cc(-c2csc(Cn3cnn(CC(CN)=C(F)F)c3=O)c2)ccc1=O` [Example 190, 5-[5-[[1-[2-(aminomethyl)-3,3-difluoro-allyl]-5-oxo-1,2,4-triazol-4-yl]methyl]-3-thienyl]-1-methyl-pyridin-2-one Trifluoroacetate]: the IC50 at recombinant human VAP-1 (setting [5]) was 1.4 nM; in assay [1] (1 mM putrescine substrate) it was 63000 nM; in assay [2] (1 mM benzylamine substrate), over 100000 nM; in assay [3] (0.5 mM tyramine substrate) it was over 100000 nM.

On to `Cc1cc(-c2ccc3cn[nH]c3c2)cnc1-n1cnn(CC(CN)=C(F)F)c1=O` [Example 233, 2-[2-(aminomethyl)-3,3-difluoro-allyl]-4-[5-(1H-indazol-6-yl)-3-methyl-2-pyridyl]-1,2,4-triazol-3-one Trifluoroacetate], for which the IC50 is 0.2 nM on recombinant human VAP-1 (setting [5]), 36000 nM in assay [1] (1 mM putrescine substrate), 200 nM in assay [2] (1 mM benzylamine substrate) and over 100000 nM in assay [3] (0.5 mM tyramine substrate).
